We go through one substance from patent US20100021471A1, “CARBON NANOTUBE-BASED DRUG DELIVERY SYSTEMS AND METHODS OF MAKING SAME” (Brookhaven Science Associates, LLC, priority 2008, published 2010).

The subject of the experiment is L1210FR cells. As to the kind of experiment: MTT cytotoxicity assay, L1210FR cells. The experiment is classed as cell-based. As to conditions: read-out: IC50 of drug itself. Here is the method: Cell culture. L1210 (ATCC) and L1210FR (a gift from Dr. Gregory Russell-Jones, Access Pharmaceuticals Australia Pty Ltd., Targeted Delivery, Unit 5, 15-17 Gibbes St, Chatswood, NSW, Sydney 2067. Australia) were grown as suspension in a RPMI-1640 cell culture medium (Gibco) in the absence of folic acid (FA) supplemented with 10% (v/v) heat-inactivated fetal bovine serum (FBS) and 1% (v/v) Penicillin and Streptomycin (P/S) at 37° C. in humidified atmosphere with 5% CO2. W1-38 embryonic fibroblast cells (ATCC) were cultured as monolayers on a 100 mm tissue culture dishes in a DMEM cell culture medium (Gibco) supplemented with 10% (v/v) heat-inactivated FBS and 1% (v/v) P/S at 37° C. in humidified atmosphere with 5% CO2. The cells were harvested, collected by centrifugation at 1000 rpm for 6 min, and resuspended in fresh medium at different cell density for biological experiments.
Cytotoxicity assay of conjugate 3. The cells were harvested, collected, and resuspended in 100 μL at a concentration of 2×10^4 cells per well in 96-well plates. For the adhesive cell type, the cells were allowed to reseed to the bottom of the plates overnight and the fresh medium were added to each well upon removal of the old medium. […] At the end of this time, the number of viable cells each wells was determined by a quantitative colorimetric staining assay using a tetrazolium salt (MTT, Sigma Chemical Co.). […]
(Tetrazolium dyes change colour on reduction, which living cells bring about.)

The IC50 is the concentration that inhibits the measured activity by half. Regarding SB-T-1214-fluorescein, the concentration for half-maximal inhibition (IC50) is 0.0876 µM.
